Source: PubChem BioAssay (NCI)
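Interpolation was linear, between the two tested concentrations surrounding the appropriate level; five concentrations were tested over 48 hours in 96-well plates. Here, GI50 denotes the concentration required for 50% inhibition of growth. The concentration for full growth arrest is given as TGI.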

Key:
Assay in all cases: inhibition of tumour cell growth, NCI panel, 48 h
CCRF-CEM leukemia = tested on: CCRF-CEM leukemia
OVCAR-4 ovarian = tested on: OVCAR-4 ovarian
SK-MEL-2 melanoma = tested on: SK-MEL-2 melanoma
786-0 renal = tested on: 786-0 renal
MDA-MB-231 breast = tested on: MDA-MB-231 breast
HCT-15 colon = tested on: HCT-15 colon
UO-31 renal = tested on: UO-31 renal
BT-549 breast = tested on: BT-549 breast
TK-10 renal = tested on: TK-10 renal
SW-620 colon = tested on: SW-620 colon
HL-60(TB) leukemia = tested on: HL-60(TB) leukemia
K-562 leukemia = tested on: K-562 leukemia
UACC-62 melanoma = tested on: UACC-62 melanoma
HOP-62 NSCLC = tested on: HOP-62 NSCLC
MDA-MB-468 breast = tested on: MDA-MB-468 breast
HOP-92 NSCLC = tested on: HOP-92 NSCLC
HCT-116 colon = tested on: HCT-116 colon
SR leukemia = tested on: SR leukemia
SK-MEL-5 melanoma = tested on: SK-MEL-5 melanoma
OVCAR-8 ovarian = tested on: OVCAR-8 ovarian
NCI-H23 lung = tested on: NCI-H23 lung
OVCAR-3 ovarian = tested on: OVCAR-3 ovarian
HCC-2998 colon = tested on: HCC-2998 colon
DU-145 prostate = tested on: DU-145 prostate
MALME-3M melanoma = tested on: MALME-3M melanoma
SK-OV-3 ovarian = tested on: SK-OV-3 ovarian
MCF7 breast = tested on: MCF7 breast
ACHN renal = tested on: ACHN renal
PC-3 prostate = tested on: PC-3 prostate
LOX IMVI melanoma = tested on: LOX IMVI melanoma
NCI-H460 lung = tested on: NCI-H460 lung
HS 578T breast = tested on: HS 578T breast
CAKI-1 renal = tested on: CAKI-1 renal
T-47D breast = tested on: T-47D breast
COLO 205 colon = tested on: COLO 205 colon
RPMI-8226 leukemia = tested on: RPMI-8226 leukemia
SK-MEL-28 melanoma = tested on: SK-MEL-28 melanoma
NCI-H522 lung = tested on: NCI-H522 lung
KM12 colon = tested on: KM12 colon
U251 CNS = tested on: U251 CNS
SF-268 CNS = tested on: SF-268 CNS
EKVX NSCLC = tested on: EKVX NSCLC
OVCAR-5 ovarian = tested on: OVCAR-5 ovarian
HT29 colon = tested on: HT29 colon
A498 renal = tested on: A498 renal
SNB-19 CNS = tested on: SNB-19 CNS
SF-539 CNS = tested on: SF-539 CNS
SF-295 CNS = tested on: SF-295 CNS
IGROV1 ovarian = tested on: IGROV1 ovarian
MDA-MB-435 = tested on: MDA-MB-435
SN12C renal = tested on: SN12C renal
M14 melanoma = tested on: M14 melanoma
A549 NSCLC = tested on: A549 NSCLC
MOLT-4 leukemia = tested on: MOLT-4 leukemia
NCI-H226 lung = tested on: NCI-H226 lung
UACC-257 melanoma = tested on: UACC-257 melanoma
RXF 393 renal = tested on: RXF 393 renal

Cn1cc(-c2cc(N)n3nc(-c4c[nH]c5ccc(F)cc45)cc3n2)c2cccnc21
GI50 (CCRF-CEM leukemia): 2.35 µM | TGI (CCRF-CEM leukemia): 7.74 µM | GI50 (OVCAR-4 ovarian): 11.6 µM | TGI (OVCAR-4 ovarian): 30 µM | GI50 (SK-MEL-2 melanoma): 12.6 µM | TGI (SK-MEL-2 melanoma): 25.2 µM | GI50 (786-0 renal): 1.64 µM | TGI (786-0 renal): 3.11 µM | GI50 (MDA-MB-231 breast): 1.92 µM | TGI (MDA-MB-231 breast): 3.7 µM | GI50 (HCT-15 colon): 1.82 µM | TGI (HCT-15 colon): 4.14 µM | GI50 (UO-31 renal): 1.66 µM | TGI (UO-31 renal): 3.24 µM | GI50 (BT-549 breast): 12.8 µM | TGI (BT-549 breast): 28.1 µM | GI50 (TK-10 renal): 2.95 µM | TGI (TK-10 renal): 11.1 µM | GI50 (SW-620 colon): 1.83 µM | TGI (SW-620 colon): 3.78 µM | GI50 (HL-60(TB) leukemia): 1.9 µM | TGI (HL-60(TB) leukemia): 4.71 µM | GI50 (K-562 leukemia): 3.42 µM | TGI (K-562 leukemia): 28.3 µM | GI50 (UACC-62 melanoma): 1.77 µM | TGI (UACC-62 melanoma): 3.34 µM | GI50 (HOP-62 NSCLC): 8.69 µM | TGI (HOP-62 NSCLC): 21.2 µM | GI50 (MDA-MB-468 breast): 1.66 µM | TGI (MDA-MB-468 breast): 3.27 µM | GI50 (HOP-92 NSCLC): 14.2 µM | TGI (HOP-92 NSCLC): 39 µM | GI50 (HCT-116 colon): 1.9 µM | TGI (HCT-116 colon): 3.6 µM | GI50 (SR leukemia): 2.8 µM | TGI (SR leukemia): > 100 µM | GI50 (SK-MEL-5 melanoma): 11.6 µM | TGI (SK-MEL-5 melanoma): 24.1 µM | GI50 (OVCAR-8 ovarian): 3.18 µM | TGI (OVCAR-8 ovarian): 11 µM | GI50 (NCI-H23 lung): 2.52 µM | TGI (NCI-H23 lung): 7.67 µM | GI50 (OVCAR-3 ovarian): 1.82 µM | TGI (OVCAR-3 ovarian): 3.69 µM | GI50 (HCC-2998 colon): 1.79 µM | TGI (HCC-2998 colon): 3.33 µM | GI50 (DU-145 prostate): 2.06 µM | TGI (DU-145 prostate): 4.4 µM | GI50 (MALME-3M melanoma): 1.75 µM | TGI (MALME-3M melanoma): 3.59 µM | GI50 (SK-OV-3 ovarian): 18.1 µM | TGI (SK-OV-3 ovarian): 39.2 µM | GI50 (MCF7 breast): 2.01 µM | TGI (MCF7 breast): 4.19 µM | GI50 (ACHN renal): 1.71 µM | TGI (ACHN renal): 3.23 µM | GI50 (PC-3 prostate): 3.26 µM | TGI (PC-3 prostate): 13.4 µM | GI50 (LOX IMVI melanoma): 1.8 µM | TGI (LOX IMVI melanoma): 3.29 µM | GI50 (NCI-H460 lung): 1.8 µM | TGI (NCI-H460 lung): 3.61 µM | GI50 (HS 578T breast): 16.9 µM | TGI (HS 578T breast): 54.2 µM | GI50 (CAKI-1 renal): 2.21 µM | TGI (CAKI-1 renal): 6.42 µM | GI50 (T-47D breast): 2.9 µM | TGI (T-47D breast): 13.2 µM | GI50 (COLO 205 colon): 1.78 µM | TGI (COLO 205 colon): 3.46 µM | GI50 (RPMI-8226 leukemia): 2.43 µM | TGI (RPMI-8226 leukemia): 7.74 µM | GI50 (SK-MEL-28 melanoma): 1.7 µM | TGI (SK-MEL-28 melanoma): 3.17 µM | GI50 (NCI-H522 lung): 13.8 µM | TGI (NCI-H522 lung): 27.4 µM | GI50 (KM12 colon): 2.5 µM | TGI (KM12 colon): 6.26 µM | GI50 (U251 CNS): 2 µM | TGI (U251 CNS): 4.1 µM | GI50 (SF-268 CNS): 11.6 µM | TGI (SF-268 CNS): 39.6 µM | GI50 (EKVX NSCLC): 3.47 µM | TGI (EKVX NSCLC): 14.9 µM | GI50 (OVCAR-5 ovarian): 3.33 µM | TGI (OVCAR-5 ovarian): 13.4 µM | GI50 (HT29 colon): 1.91 µM | TGI (HT29 colon): 3.85 µM | GI50 (A498 renal): 17 µM | TGI (A498 renal): 30.9 µM | GI50 (SNB-19 CNS): 4.05 µM | TGI (SNB-19 CNS): 16.2 µM | GI50 (SF-539 CNS): 1.78 µM | TGI (SF-539 CNS): 3.25 µM | GI50 (SF-295 CNS): 1.69 µM | TGI (SF-295 CNS): 3.17 µM | GI50 (IGROV1 ovarian): 2.24 µM | TGI (IGROV1 ovarian): 5.39 µM | GI50 (MDA-MB-435): 1.92 µM | TGI (MDA-MB-435): 4.18 µM | GI50 (SN12C renal): 13.1 µM | TGI (SN12C renal): 26.2 µM | GI50 (M14 melanoma): 1.88 µM | TGI (M14 melanoma): 4.01 µM | GI50 (A549 NSCLC): 2.48 µM | TGI (A549 NSCLC): 7.91 µM | GI50 (MOLT-4 leukemia): 2.42 µM | TGI (MOLT-4 leukemia): 7.73 µM | GI50 (NCI-H226 lung): 1.92 µM | TGI (NCI-H226 lung): 4 µM | GI50 (UACC-257 melanoma): 14.8 µM | TGI (UACC-257 melanoma): 28 µM | GI50 (RXF 393 renal): 1.77 µM | TGI (RXF 393 renal): 3.35 µM
